Assay results: patent US20230135093A1, “TRIAZOLYL DERIVATIVES AS GABA A ALPHA5 PAM” (Hoffmann-La Roche Inc., priority 2020, published 2023)

Key:
h-GABA-A α5β3γ2 [1] = biological target: T1, h-GABA-A α5β3γ2 (Homo sapiens, UniProt P18507+P31644); test: [3H]flumazenil competition binding assay on membranes of HEK293 cells expressing GABAA receptors
T1 construct: expressed in transfected cells; host or cells: Xenopus laevis oocytes, micro-injected with subunit RNA
Outline: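 Membranes from HEK293 cells transiently expressing human α5β3γ2 were incubated 1 h at 4 °C in Krebs-tris pH 7.5 with 0.5 nM [3H]flumazenil and test compound. Nonspecific binding was set with 10^−5 M diazepam. Bound radioactivity was filtered and counted. Ki is the mean of two determinations.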

h-GABA-A α5β3γ2 [2] = biological target: T1, h-GABA-A α5β3γ2; test: Two-electrode voltage clamp electrophysiology in Xenopus oocytes expressing GABAA receptors (modulation of GABA EC20 current); format: cell-based
Outline: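 Oocytes injected with α5β3γ2 subunit RNA, recorded 3-5 days later by two-electrode clamp at −80 mV, room temperature, pH 7.4. The compound, at ~30-fold its Ki, was co-applied during a second GABA EC20 pulse. Efficacy was the extremum of the point-by-point second/first current ratio, given as % modulation (100×(fold−1)); n≥3 oocytes.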

[3] = Table 1, displacement of [3H]-Flumazenil (0.5 nM), HEK293 cells expressing human receptors, means of two determinations
[4] = Table 1, % modulation of GABA EC20 = 100*(Fold increase-1)
[5] = Table 1, Xenopus oocytes, GABA EC20, test compound at approximatively 30 fold its Ki
[6] = Table 2, reference compounds, displacement of [3H]-Flumazenil
[7] = Table 2, reference compounds, % modulation of GABA EC20
[8] = Table 2, reference compounds, GABAA α5β3γ2 overexpressing oocytes, GABA EC20

Ki (h-GABA-A α5β3γ2 [1]; [3]) [nM]	Efficacy (GABA) % (h-GABA-A α5β3γ2 [2]; [4]) [%]	Fold increase h-GABA-A α5β3γ2 oocyte (h-GABA-A α5β3γ2 [2]; [5])	Ki (h-GABA-A α5β3γ2 [1]; [6]) [nM]	Efficacy (GABA) % (h-GABA-A α5β3γ2 [2]; [7]) [%]	Fold increase h-GABA-A α5β3γ2 oocyte (h-GABA-A α5β3γ2 [2]; [8])	SMILES
23.8	290	3.9				CCn1nnc(-c2ccc(Cl)cc2F)c1Cn1ncc(-c2cccc(C#N)n2)cc1=O [Example 111, 6-(1-((4-(4-chloro-2-fluorophenyl)-1-ethyl-1H-1,2,3-triazol-5-yl)methyl)-6-oxo-1,6-dihydropyridazin-4-yl)picolinonitrile]
12.8	228	3.28				C[C@@H]1CN(c2cnn(Cc3c(-c4ccc(Cl)nc4)nnn3C)c(=O)c2)C[C@H](C)O1 [Example 112, 2-[[5-(6-chloro-3-pyridyl)-3-methyl-triazol-4-yl]methyl]-5-[(2S,6R)-2,6-dimethylmorpholin-4-yl]pyridazin-3-one]
48.5	98	1.98				Cc1ccnn1C1CN(c2cnn(Cc3c(-c4ccc(Cl)cc4F)nnn3C)c(=O)c2)C1 [Example 113, 2-[[5-(4-chloro-2-fluoro-phenyl)-3-methyl-triazol-4-yl]methyl]-5-[3-(5-methylpyrazol-1-yl)azetidin-1-yl]pyridazin-3-one]
3.6	154					COc1ncc(-c2cnn(Cc3c(-c4ccc(C)nn4)nnn3C)c(=O)c2)cc1Cl [Example 114, 5-(5-chloro-6-methoxy-3-pyridyl)-2-[[3-methyl-5-(6-methylpyridazin-3-yl)triazol-4-yl]methyl]pyridazin-3-one]
47.4	74	1.74				CCOC1CN(c2cnn(Cc3c(-c4ncc(C(F)(F)F)cn4)nnn3C)c(=O)c2)C1 [Example 115, 5-(3-ethoxyazetidin-1-yl)-2-[[3-methyl-5-[5-(trifluoromethyl)pyrimidin-2-yl]triazol-4-yl]methyl]pyridazin-3-one]
66.1	48	1.48				CC(C)OC1CN(c2cnn(Cc3c(-c4ncc(C(F)(F)F)cn4)nnn3C)c(=O)c2)C1 [Example 116, 5-(3-isopropoxyazetidin-1-yl)-2-[[3-methyl-5-[5-(trifluoromethyl)pyrimidin-2-yl]triazol-4-yl]methyl]pyridazin-3-one]
15.4	135	2.35				COc1ncc(-c2cnn(Cc3c(-c4ncc(C(F)(F)F)cn4)nnn3C)c(=O)c2)cc1Cl [Example 118, 5-(5-chloro-6-methoxypyridin-3-yl)-2-((1-methyl-4-(5-(trifluoromethyl)pyrimidin-2-yl)-1H-1,2,3-triazol-5-yl)methyl)pyridazin-3(2H)-one]
29.6	86	1.86				Cn1nnc(-c2ncc(C(F)(F)F)cn2)c1Cn1ncc(N2CC(OCC(F)F)C2)cc1=O [Example 119, 5-[3-(2,2-difluoro-ethoxy)azetidin-1-yl]-2-[[3-methyl-5-[5-(trifluoromethyl)pyrimidin-2-yl]triazol-4-yl]methyl]pyridazin-3-one]
27	78	1.78				Cn1nnc(-c2ncc(C(F)(F)F)cn2)c1Cn1ncc(N2CC(OCC(F)(F)F)C2)cc1=O [Example 120, 2-[[3-methyl-5-[5-(trifluoromethyl)pyrimidin-2-yl]triazol-4-yl]methyl]-5-[3-(2,2,2-trifluoro-ethoxy)azetidin-1-yl]pyridazin-3-one]
24.8	89	1.89				Cn1nnc(-c2ncc(C(F)(F)F)cn2)c1Cn1ncc(N2CC(OC(F)F)C2)cc1=O [Example 121, 5-[3-(difluoromethoxy)azetidin-1-yl]-2-[[3-methyl-5-[5-(trifluoromethyl)pyrimidin-2-yl]triazol-4-yl]methyl]pyridazin-3-one]
55.5	141	2.41				CCn1nnc(-c2ccc(Cl)cc2F)c1Cn1ncc(N2CC3(CC[C@@H](C)CO3)C2)cc1=O [Example 122, (R)-2-((4-(4-chloro-2-fluorophenyl)-1-ethyl-1H-1,2,3-triazol-5-yl)methyl)-5-(7-methyl-5-oxa-2-azaspiro[3.5]nonan-2-yl)pyridazin-3(2H)-one]
7.6	148	2.48				COc1ncc(-c2cnn(Cc3c(-c4ccc(C(F)(F)F)nn4)nnn3C)c(=O)c2)cc1Cl [Example 123, 5-(5-chloro-6-methoxypyridin-3-yl)-2-((1-methyl-4-(6-(trifluoro-methyl)pyridazin-3-yl)-1H-1,2,3-triazol-5-yl)methyl)pyridazin-3(2H)-one]
10.2	105	2.05				CCn1nnc(-c2ccc(Cl)cc2F)c1Cn1ncc(N2CC3(CC[C@H](F)CO3)C2)cc1=O [Example 124, (S)-2-((4-(4-chloro-2-fluorophenyl)-1-ethyl-1H-1,2,3-triazol-5-yl)methyl)-5-(7-fluoro-5-oxa-2-azaspiro[3.5]nonan-2-yl)pyridazin-3(2H)-one]
25.3	69	1.69				CCn1nnc(-c2ccc(Cl)cc2F)c1Cn1ncc(N2CC3(CC[C@@H](F)CO3)C2)cc1=O [Example 125, (R)-2-((4-(4-chloro-2-fluorophenyl)-1-ethyl-1H-1,2,3-triazol-5-yl)methyl)-5-(7-fluoro-5-oxa-2-azaspiro[3.5]nonan-2-yl)pyridazin-3(2H)-one]
17.5	61	1.61				Cn1nnc(-c2ccc(Cl)cc2F)c1Cn1ncc(N2CC3(CC[C@H](F)CO3)C2)cc1=O [Example 126, (S)-2-((4-(4-chloro-2-fluorophenyl)-1-methyl-1H-1,2,3-triazol-5-yl)methyl)-5-(7-fluoro-5-oxa-2-azaspiro[3.5]nonan-2-yl)pyridazin-3(2H)-one]
			58.4	−28	0.72	Cn1nnc(-c2ccccc2F)c1COc1ccc(-n2cnc(C(F)F)c2)nn1 [RO-007, reference compound]
			53.2	−38	0.62	Cn1nnc(-c2ccc(F)cc2)c1COc1ccc(C(=O)NN2CCOCC2)nn1 [RO-045, reference compound]
			33.4	−15	0.85	Cn1nnc(-c2ccc(F)cn2)c1COc1ccc(C(=O)NN2CCOCC2)nn1 [RO-052, reference compound]

SMILES	Ki (h-GABA-A α5β3γ2 [1]; [3]) [nM]	Efficacy (GABA) % (h-GABA-A α5β3γ2 [2]; [4]) [%]	Fold increase h-GABA-A α5β3γ2 oocyte (h-GABA-A α5β3γ2 [2]; [5])	Ki (h-GABA-A α5β3γ2 [1]; [6]) [nM]	Efficacy (GABA) % (h-GABA-A α5β3γ2 [2]; [7]) [%]	Fold increase h-GABA-A α5β3γ2 oocyte (h-GABA-A α5β3γ2 [2]; [8])
Cn1nnc(-c2ncc(C(F)(F)F)cn2)c1Cn1ncc(N2CC(OC3CCC3)C2)cc1=O [Example 117, 5-[3-(cyclo-butoxy)azetidin-1-yl]-2-[[3-methyl-5-[5-(trifluoromethyl)pyrimidin-2-yl]triazol-4-yl]methyl]pyridazin-3-one]	52.7	87	1.87			
